Experiment [1] deals with T1, OFQ receptor (rat, LC132) (Rattus norvegicus, UniProt P35370).
T1 construct: expressed in transfected cells; host or cells: HEK-293 cells adapted to suspension growth (293s), vector pCEP4; total membrane fraction of 293s-OFQ-R cells
Put plainly: OFQ-R binding assay: [3H]-OFQ competition on membranes of 293s-OFQ-R cells. As to conditions: Ki from IC50 by Cheng and Prusoff, at least 6 concentrations in triplicate, determined twice, read-out: OFQ pKi (converted). The protocol: Methods of OFQ-R Binding Assay
HEK-293 cells adapted to suspension growth (293s) were cultured in HL medium plus 2% FBS. The cells were transfected with the rat OFQ receptor cDNA (LC132), FEBS Lett. 347, 284-288, 1994, cloned in the expression vector pCEP4 (Invitrogen, San Diego, Calif., USA) using lipofectin (Life Technologies, Bethesda, Md., USA). Transfected cells were selected in the presence of hygromycin (1000 U/ml) (Calbiochem, San Diego, Calif., USA). A pool of resistant cells was tested for OFQ-R expression by binding of [^3 H]-OFQ (Amersham PLC, Buckinghamshire, England). These cells (293s-OFQ-R) were expanded for large scale culture and membrane preparation.
293s-OFQ-R cells were harvested by centrifugation, washed 3 times with phosphate buffered saline (PBS) before resuspension in buffer A (50 mM Tris-HCl, pH 7.8, 5 mM MgCl2, 1 mM EGTA) and disruption with a tissue homogenizer (30 seconds, setting 4, Pt 20, Kinematica, Kriens-Lucern, Switzerland). A total membrane fraction was obtained by centrifugation at 49,000×g at 4° C. This procedure was repeated twice and the pellet was resuspended in buffer A. Aliquots were stored at -70° C. and protein concentrations were determined using the BCA™ Protein Assay Reagent (Pierce, Rockford, Ill.) following the manufacturer's recommendations.
[^3 H]-OFQ competition studies were carried out with 77 μg membrane protein in a final assay volume of 0.5 ml buffer A plus 0.1% BSA and 0.01% bacitracin (Boehringer-Mannheim, Mannheim, Germany) for one hour at room temperature. 50 nM unlabeled OFQ was used to define the non-specific binding. […] The retained radioactivity was counted on a Packard Top-Count microplate scintillation counter after addition of 40 μl of Microscint 40 (Canberra Packard). The effects of compounds were determined using at least 6 concentrations in triplicate, and determined twice. IC50 values were determined by curve fitting and these calues were converted to Ki values by the method of Cheng and Prusoff, Biochem. Pharmacol., 22, 3099, 1973.

Experiment [2] relates to OFQ-R. As to conditions: both in vitro and in vivo; cited from earlier work.
Experiment [3] deals with adenylate cyclase in CHO(LC 132^+) cells. As to conditions: CHO(LC 132+) cells in culture; cited from earlier work.
The test system of experiment [4] is mice. As to conditions: intra-cerebroventricular; cited from earlier work.
In experiment [5] the test system is mice. Conditions: intra-cerebroventricular; cited from earlier work. The source holds these as a separate data set.

Structures can show the parent of a compound that is named as a salt.

T1 sequence (P35370 whole entry): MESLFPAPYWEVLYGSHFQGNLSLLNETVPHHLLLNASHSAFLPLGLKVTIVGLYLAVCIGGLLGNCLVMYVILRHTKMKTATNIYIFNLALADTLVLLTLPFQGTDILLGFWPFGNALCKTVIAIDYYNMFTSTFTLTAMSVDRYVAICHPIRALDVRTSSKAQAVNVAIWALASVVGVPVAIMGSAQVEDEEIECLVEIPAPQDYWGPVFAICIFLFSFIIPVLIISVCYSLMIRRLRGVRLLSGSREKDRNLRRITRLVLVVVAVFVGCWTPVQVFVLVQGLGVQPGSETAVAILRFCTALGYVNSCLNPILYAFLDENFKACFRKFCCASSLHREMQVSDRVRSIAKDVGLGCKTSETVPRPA

Consider `O=C1OC2(CCN(CCNC3c4ccccc4CCc4ccccc43)CC2)c2ccccc21` [A/1, 1'-[2-(10,11-Dihydro-5H-dibenzo[a,d]cyclohepten-5-ylamino)-ethyl]-spiro[isobenzofuran-1,4'-piperidin]-3-one methansulfonate (1:2)], for which the Ki in experiment [1] was 50.1 nM.

For the compound `c1ccc2c(c1)CCCCC2NCCN1CCC2(CC1)OCc1ccccc12` (stereo not shown) [B/5, [2-(3H-Spiro[isobenzofuran-1,4'-piperidin]-1'yl)-ethyl]-(5,6,7,8-tetrahydro-4H-benzocyclohepten-4-yl)-amine hydrochloride (1:2)], in experiment [1], the Ki was 100 nM.

On to `c1ccc(C(OCCN2CCC3(CC2)OCc2ccccc23)c2ccccc2)cc1` [Example C, 1'-(2Benzhydryloxy-ethyl)-3H-spiro[isobenzofuran-1,4'-piperidine]hydrochloride (1:1)], for which the Ki in experiment [1] is 12.6 nM.

In the case of “F-G-G-F-T-G-A-R-K-S-A-R-K-L-A-N-Q (FGGFTGARKSARKLANQ) [OFQ, seventeen amino-acid-long peptide isolated from rat brain, natural ligand for a G-protein coupled receptor (OFQ-R)]”, the “agonistic activity at the OFQ-R” value in experiment [2] was “exhibits agonistic activity”. For the same compound, in experiment [3], the “inhibition of adenylate cyclase” value is “inhibits adenylate cyclase”. Further, the hyperalgesia result in experiment [4] was “induces hyperalgesia”. For the same compound, the locomotive activity result in experiment [5] is on record as “slows down locomotive activity”.

The record behind these values is US6166209A, “Piperidine derivatives” (Hoffmann-La Roche Inc., priority 1997, dated 2000).
